Several values for one entry are separate records, joined by “and”; a condition that tells them apart may be missing. Equal values may be shown once. Where a name gives a salt, the structure may show the parent alone. Marks after values point to notes of the source that are not given here.
Tests used:
[1] = Estimated solubility of the salt in organic solvents; format: physicochemical; details: for solubility: organic solvent or mixture
Procedure: (b) The Form B salt described in (a) above was also prepared by dissolving, in a vial, 20% w of a sample of the benzoate salt prepared by the method of Example 1(b) (Form A) in a solvent such as methanol (>20 mg/ml), ethanol (>20 mg/ml), n-propanol (>20 mg/ml), isopropanol (8.5 mg/ml) or acetone (9.6 mg/ml). The figures in brackets indicate the estimated solubility of the salt in these solvents. The vial was then sealed and the suspension was homogenised at ambient temperature (20° C.) using a magnet. Stirring and temperature were maintained for a period of at least 7 days after which time a sample of the material obtained was dried and tested by XRPD. XRPD confirmed that there had been complete transformation of Form A to Form B.

[2] = Hygroscopicity determination (vapor sorption, SGA-100); format: physicochemical; details: room temperature (25° C.)
Procedure: The weight change of a test sample at room temperature (25° C.) and at 80% relative humidity (RH) were investigated by recording adsorption-desorption isotherms using a symmetric vapor-sorption analyser SGA-100 (VTI Corporation) using different methods, the main features being: a single sorption/desorption cycle from 0 to 90% RH in 10% RH steps with a dm/dt trigger value of 0.002%, (dm/dt=change in mass with time—when the balance stability is within this value the next step is automatically started, however, if those conditions are not achieved there is a default maximum time for each step of 6 hours). Approximately 2 to 10 mg of the test sample was placed in a sample holder and exposed to different relative humidities.

[3] = Evaluation of the deaggregation properties of micronised salt (TSI Aerodynamic Particle Sizer); format: physicochemical
Procedure: This screening study was intended to give some estimation regarding the deaggregation properties of anhydrous N-{2-[((2S)-3-{[1-(4-chlorobenzyl)piperidin-4-yl]amino}-2-hydroxy-2-methylpropyl)oxy]-4-hydroxyphenyl}acetamide benzoate salt, form B (referred to in the remainder of this example as “Form B salt”. The results were compared to the results from an established product powder, the Pulmicort® Turbuhaler® formulation, which was tested identically.
Form B salt was micronised in order to obtain a particle size of less than […]. Pulmicort® Turbuhaler® powder was emptied from the Pulmicort® Turbuhaler®. The latter formulation consists of micronised Budesonide powder that is spheronised into small pellets. The micronization of the Form B salt was performed in a spiral jet mill. Within the inner annular space of the jet mill there is a spiral classification. Fine particles will pass through this classification zone and out through a cyclone at the bottom of the mill. The fraction captured in the exhaust filter of the mill was discarded.
For deaggregation of the powders (both for Pulmicort® Turbuhaler® formulation and the Form B salt), the powders were scrape filled into a simple inhaler device comprising an L-shaped cylindrical channel, comprising a vertical component and a horizontal component.
A Turbuhaler® mouthpiece was fastened to the end of the horizontal component to promote deaggregation of the powder, and the powder to be tested was placed via the vertical channel into the bend of the channel (i.e. the corner of the L-shaped channel). An airflow pulse (see below) then activated the airflow through the vertical component of the channel, entraining the powder located in the bend, and the air-particle mixture is thereafter moved through the horizontal component of the cylinder and finally passed through the Turbuhaler® mouthpiece.
After leaving the Turbuhaler® mouthpiece, the aerosol was transferred to a TSI Aerodynamic Particle Sizer (APS®) with Impactor Inlet 3306 set-up where the aerosol cloud was analysed for its aerodynamic properties and fine particle fraction. The APS set-up was arranged in such a way as to allow withdrawal of doses at optional airflows, followed by counting and aerodynamic classification (ca. 0.3-20 μm) of the particles on a particle by particle basis. Briefly, between the USP throat and the 3306 Impacter Inlet, a three-way pneumatic valve and an NGI pre-separator was positioned. In addition, a tube to a vacuum source via a timer-controlled solenoid valve (Triggor Box) was positioned between the valve and the pre-separator in a T-joint fashion. A short airflow pulse is then generated through the inhaler, USP throat, and pre-separator using the Triggor box. After the end of the air pulse, the pneumatic valve switches so that the aerosol cloud in the pre-separator is drawn into the APS via the 3306 Impacter Inlet for aerodynamic assessment.
Each dose was withdrawn with an airflow pulse of duration 0.4 seconds with maximum airflow at 60 lpm, followed by sampling into the APS instrument. The sampling time in the APS software was set to 20 seconds. The result parameters from the APS were mass median aerodynamic diameter (MMAD), geometric standard deviation (GSD), and a measure of the dose amount (particle counting data converted to mass data using particle density=1) called fine particle dose (FPD).
The two first doses (for each formulation) were released and measured gravimetrically. The mean value of these gravimetric doses, denoted “metered doses” or loaded dose, were used for normalisation of the (FPD), which gives a measure of the fine particle fraction (FPF). The FPF can therefore be used for direct comparison between the two powder formulations (for the instrument set up used). The limit for fine particles was set to an aerodynamic particle size of 7 μm. Seven and five doses were then analysed with the APS for Pulmicort® Turbuhaler® formulation and for Form B salt, respectively. […]

human CCR1 = molecular target: T1, human CCR1 (Homo sapiens, UniProt P32246); assay: Human CCR1 binding assay ([125I] MIP-1α displacement, HEK-CCR1 membranes)
T1 construct: expressed in transfected cells; membranes
T1 sequence (P32246 1-355): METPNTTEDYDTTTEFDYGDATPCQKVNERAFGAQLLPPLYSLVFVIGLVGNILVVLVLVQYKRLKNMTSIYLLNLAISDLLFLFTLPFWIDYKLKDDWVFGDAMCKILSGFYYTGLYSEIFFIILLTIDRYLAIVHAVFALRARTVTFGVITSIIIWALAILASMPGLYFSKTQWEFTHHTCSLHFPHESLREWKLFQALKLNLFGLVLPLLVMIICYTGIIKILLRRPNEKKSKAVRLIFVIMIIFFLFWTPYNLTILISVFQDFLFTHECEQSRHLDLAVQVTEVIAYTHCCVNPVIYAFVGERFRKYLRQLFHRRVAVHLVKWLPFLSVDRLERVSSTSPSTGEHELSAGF
Procedure: HEK293 cells, from ECACC, stably expressing recombinant human CCR1 (HEK-CCR1) were used to prepare cell membranes containing CCR1. […] The concentration of membranes of each batch was adjusted to 10% specific binding of 33 pM [^125I] MIP-1α.
100 μL of HEK-CCR1 membranes diluted in assay buffer pH 7.4 (137 mM NaCl (Merck, Cat No 1.06404), 5.7 mM Glucose (Sigma, Cat No G5400), 2.7 mM KCl (Sigma, Cat No P-9333), 0.36 mM NaH2PO4×H2O (Merck, Cat No 1.06346), 10 mM HEPES (Sigma, Cat No H3375), 0.1% (w/v) Gelatine (Sigma, Cat No G2625)) with the addition of 17500 units/L Bacitracin (Sigma, Cat No B 1025) were added to each well of the 96 well filter plate (0.45 μm opaque Millipore cat no MHVB N4550). […] 12 μl assay buffer with 10% DMSO was added to certain wells (without compound) to detect maximal binding (B0).
12 μL [^125I] MIP-1α, diluted in assay buffer to a final concentration in the wells of 33 pM, was added to all wells. The plates with lid were then incubated for 1.5 hrs at room temperature. After incubation the wells were emptied by vacuum filtration (MultiScreen Resist Vacuum Manifold system, Millipore) and washed once with 200 μl assay buffer. After the wash, all wells received an addition of 50 μL of scintillation fluid (OptiPhase “Supermix”, Wallac Oy, Turko, Finland). Bound [^125I] MIP-1α was measured using a Wallac Trilux 1450 MicroBeta counter. […]

Work on `CC(=O)Nc1ccc(O)cc1OC[C@@](C)(O)CNC1CCN(Cc2ccc(Cl)cc2)CC1` [Form A, N-{2-[((2S)-3-{[1-(4-chlorobenzyl)piperidin-4-yl]amino}-2-hydroxy-2-methylpropyl)oxy]-4-hydroxyphenyl}acetamide benzoate] yielded an estimated solubility ([1]; acetone) of 9.6 mg/mL, a solubility ([1]; ethanol) of over 20 mg/mL and an estimated solubility ([1]; isopropanol) of 8.5 mg/mL. For the same compound, the solubility ([1]; methanol) was over 20 mg/mL, the solubility ([1]; n-propanol) was over 20 mg/mL and the “Water Uptake (% w/w) at 80% RH” value ([2]; listed as Anhydrous Form A) was under 2 % w/w.

For `CC(=O)Nc1ccc(O)cc1OC[C@@](C)(O)CNC1CCN(Cc2ccc(Cl)cc2)CC1` [Form B salt, N-{2-[((2S)-3-{[1-(4-chlorobenzyl)piperidin-4-yl]amino}-2-hydroxy-2-methylpropyl)oxy]-4-hydroxyphenyl}acetamide benzoate], the “Water Uptake (% w/w) at 80% RH” value ([2]; listed as Anhydrous Form B) was under 0.8 % w/w, the “Normalized FPF (mean FPF Form B salt/mean FPF Pulmicort Turbuhaler formulation)” value [3] was 164%^a and the “FPF compared with Pulmicort Turbuhaler formulation” value ([3]; in words) was “generally higher”. The “de-aggregation properties (conclusion)” value ([3]; in words) was “advantageous de-aggregation properties”, the “FPD (fine particle dose)” value ([3]; mean of doses) was 182 µg and the “MMAD (mass median aerodynamic diameter)” value ([3]; mean of doses) was 2.16 μm. For the same compound, the “MMAD (mass median aerodynamic diameter)” value ([3]; single dose, airflow pulse 0.4 seconds, 60 lpm) was 2.28 μm and 2.12 μm and 2.20 μm and 2.10 μm and 2.11 μm.

Work on `CC(=O)Nc1ccc(O)cc1OC[C@@](C)(O)CNC1CCN(Cc2ccc(Cl)cc2)CC1` [N-{2-[((2S)-3-{[1-(4-chlorobenzyl)piperidin-4-yl]amino}-2-hydroxy-2-methylpropyl)oxy]-4-hydroxyphenyl}acetamide ditrifluoroacetate] yielded an IC50 (human CCR1) of under 50 nM.

Reference: patent publication US8148405B2, “Salt I” (AstraZeneca AB, priority 2005, dated 2012)
